{"source": "patent US20050069907A1", "about": "“Methods for using double-mutant RNA polymerases with reduced discrimination between non-canonical and canonical nucleoside triphosphates” (priority 2002, published 2005)", "molecules": {"B1": {"name": "T7 DNAP: T7 DNA polymerase (protein, UniProt P00581 1-704, looked up)", "DNA-directed DNA polymerase": "MIVSDIEANALLESVTKFHCGVIYDYSTAEYVSYRPSDFGAYLDALEAEVARGGLIVFHNGHKYDVPALTKLAKLQLNREFHLPRENCIDTLVLSRLIHSNLKDTDMGLLRSGKLPGKRFGSHALEAWGYRLGEMKGEYKDDFKRMLEEQGEEYVDGMEWWNFNEEMMDYNVQDVVVTKALLEKLLSDKHYFPPEIDFTDVGYTTFWSESLEAVDIEHRAAWLLAKQERNGFPFDTKAIEELYVELAARRSELLRKLTETFGSWYQPKGGTEMFCHPRTGKPLPKYPRIKTPKVGGIFKKPKNKAQREGREPCELDTREYVAGAPYTPVEHVVFNPSSRDHIQKKLQEAGWVPTKYTDKGAPVVDDEVLEGVRVDDPEKQAAIDLIKEYLMIQKRIGQSAEGDKAWLRYVAEDGKIHGSVNPNGAVTGRATHAFPNLAQIPGVRSPYGEQCRAAFGAEHHLDGITGKPWVQAGIDASGLELRCLAHFMARFDNGEYAHEILNGDIHTKNQIAAELPTRDNAKTFIYGFLYGAGDEKIGQIVGAGKERGKELKKKFLENTPAIAALRESIQQTLVESSQWVAGEQQVKWKRRWIKGLDGRKVHVRSPHAALNTLLQSAGALICKLWIIKTEEMLVEKGLKHGWDGDFAYMAWVHDEIQVGCRTEEIAQVVIETAQEAMRWVGDHWNFRCLLDTEGKMGPNWAICH"}}, "key": {"RNA as a template": {"tested_on": "RNA as a template", "conditions": "cited from earlier work"}, "Bgl II-cut pPK5": {"tested_on": "Bgl II-cut pPK5", "test": "Run-off transcription with 2′-OMe- or 2′-azido-NTPs on Bgl II-cut pPK5", "format": "biochemical", "protocol": "(§1) RNAPs were prepared as described (Brieba, L G, and Sousa, R. Biochemistry, 39: 919-923, 2000). Transcription reactions were carried out for 30 min. at room temperature in 40 mM Tris-Cl, pH 8.0, 6 mM MgCl2, 10 mM NaCl, 2 mM spermidine, with templates at 10^−7 M and RNAPs at 2×10^−7 M. All NTPs were used at 0.5 mM, and transcripts were labeled by inclusion of 1% v/v 800 Ci/mM […] in the reaction. Modified NTPs were from Trilink Biotechnologies. Reactions were stopped by addition of an equal volume of 90% formamide, 50 mM EDTA, 0.01% xylene cyanol, resolved by electrophoresis in 20% acrylamide, 1% bis-acrylamide, 1×TBE gels, and visualized on a Molecular Dynamics Phosphorimager.\nThe ability of the wild-type, Y639F and Y639F/H784A mutants to utilize 2′-OMe-UTP and 2′-OMe-CTP, and 2′-azido-UTP and 2′-azido-CTP in RNA synthesis was tested. On a Bgl II-cut pPK5 (Mentesanas, P. E., et al., “Characterization of Bacteriophage T7 RNA Polymerase Elongation Complexes,” J. Mol. Biol. 302:1049-1062, 2000) template in which CTP and UTP are first incorporated at +14 and +15, respectively, the wild-type enzyme can synthesize 34 nucleotide (nt) run-off transcripts in reactions in which UTP is replaced with 2′-OMe-UTP (FIG. 2a, lane 2) or in reactions in which CTP is replaced with 2′-OMe-CTP (FIG. 2a, lane 3). Relative to the reaction with 4 NTPs (FIG. 2a, lane 1), yields of run-off transcripts are reduced 6-fold and 21-fold in the 2′-OMe-UTP and 2′-OMe-CTP reactions, respectively. When both UTP and CTP are replaced with the corresponding 2′-OMe-NTPs, run-off transcription with the wild-type enzyme is undetectable (FIG. 2a, lane 4). Terminated transcripts are seen in these reactions at positions where 2′-OMe-UMP or 2′-OMe-CMP are incorporated (FIG. 2a, lanes 2-4). The Y639F mutation enhances utilization of the 2′-OMe-NTPs: relative to reactions with 4 NTPs (FIG. 2a, lane 5) runoff transcription with Y639F is reduced, respectively: 2-fold, 8-fold, and 55-fold in reactions with 2′-OMe-UTP, 2′-OMe-CTP, or both (FIG. 2a, lanes 6-8). With the Y639F/H784A double mutant the reduction in run-off transcript synthesis is <15% in reactions with 2′-OMe-UTP (FIG. 2a, lane 10), and only 3-fold and 6-fold in reactions with, respectively, 2′-OMe-CTP or both 2′-OMe-UTP and 2′-OMe-CTP (FIG. 2a, lanes 11, 12).\nIdentical experiments were carried out with 2′-azido-UTP or 2′-azido-CTP replacing UTP or CTP, respectively (FIG. 2b). With the wild-type enzyme, run-off transcription was reduced 15- and 50-fold in reactions with 2′-azido-UTP or 2′-azido-CTP, respectively (FIG. 2b; lanes 2, 3), and was undetectable in reactions with both 2′-azido-UTP and 2′-azido-CTP (FIG. 2b; lane 4). With Y639F, use of 2′-azido-UTP or 2′-azido-CTP reduced run-off transcription by 70% (FIG. 2b; lanes 6, 7) compared to reactions with 4 NTPs (FIG. 2b; lane 5), while use of both 2′-azido-UTP and 2′-azido-CTP reduced runoff transcription by 11-fold (FIG. 2b, lane 8). With Y639F/H784A use of a single azido-modified NTP reduced run-off transcription by only 40% (FIG. 2b; lanes 10, 11), while use of two 2′-azido-NTPs reduced it by 3-fold (FIG. 2b; lane 12)."}, "HindIII-cut pT75": {"tested_on": "HindIII-cut pT75", "test": "Run-off transcription with 2′-OMe- or 2′-azido-NTPs on HindIII-cut pT75", "format": "biochemical", "protocol": "as §1\nWith the pPK5 template, UMP and CMP are not incorporated into the first 9 nt of RNA. Incorporation of non-canonical NMPs during synthesis of the first 9 nt of RNA is expected to cause greater reductions in run-off transcript synthesis because the RNA is readily released from the transcription complex during this initial phase of transcription. Therefore, if incorporation of a non-canonical NMP is slow, the RNA will usually dissociate before the NMP is incorporated. […] To see whether NMPs with bulky 2′-substituents could be incorporated during the initial phase of transcription a Hind-III linearized pT75 (Tabor, S. and Richardson, C. C., “A bacteriophage T7 RNA polymerase/promoter system for controlled exclusive expression of specific genes,” Proc. Natl. Acad. Sci. USA 82:1074-1078, 1985) was used. On this template, UMP is first incorporated at +14 while CMP is incorporated at +6 and +7. In reactions with 2′-OMe-UTP run-off transcript synthesis is reduced 11-fold, 5-fold, and <2-fold with the wild-type, and the Y639F, and Y639F/H784A mutants, respectively (FIG. 2c; lanes 2, 6, 10). However, in reactions with 2′-OMe-CTP run-off transcription is undetectable with the wild-type or Y639F enzymes (FIG. 2c; lanes 3, 4, 7, 8), and is reduced ˜700-fold with Y639F/H784A (FIG. 2c; lanes 11, 12).\nRun-off transcript yields in reactions with HindIII-cut pT75 and 2′-azido-UTP are reduced 18-, 8.5-, and <2-fold with wild-type and Y639F and Y639F/H784 mutants, respectively (FIG. 2d; lanes 2, 6, 10), relative to reactions with 4 NTPs (FIG. 2d; lanes 1, 5, 9). In reactions with 2′-azido-CTP, or both 2′-azido-CTP and 2′-azido-UTP, run-off transcription is undetectable with the wild-type enzyme (FIG. 2d; lanes 3, 4), is reduced 65-fold with Y639F (FIG. 2d; lanes 7, 8), but is reduced only 7-fold with Y639F/H784A (FIG. 2d; lanes 11, 12)."}, "T7 Control Template": {"tested_on": "T7 Control Template", "test": "Incorporation of Cy5-UTP or Cy5-dCTP into transcripts (A650/A260)", "format": "biochemical", "conditions": "FluoroLink Cy5-UTP or Cy5-dCTP in addition to UTP or CTP", "protocol": "In separate experiments to evaluate the ability of the Y639F/H784A double mutant versus the Y639F single mutant of T7 RNAP to incorporate nucleoside triphosphates with substituents at other positions than the 2′-position of the sugar, in vitro transcription reactions are carried out with each mutant enzyme using a T7 Control Template from an AmpliScribe™ T7 High Yield Transcription Kit (EPICENTRE) and either FluoroLink™ Cy5-UTP or FluoroLink™ Cy5-dCTP (both from Amersham Biosciences) in the reaction mixture in addition to the corresponding canonical nucleotide, UTP or CTP. Following transcription, the product is precipitated with ammonium acetate and the relative amount of Cy5 dye in the transcripts are determined based on the A650/A260 absorption ratios."}, "[1]": {"conditions": "even in Mn^2+ buffer; cited from earlier work"}}}
{"molecule": "E. coli DNA-directed DNA polymerase I: E. coli DNA polymerase I", "values": [{"measurement": "Increase in dNTP Km", "setting": "RNA as a template", "value": "~100", "unit": "fold"}]}
{"molecule": "Y639F/H784A: Y639F/H784A double mutant of T7 RNAP", "values": [{"measurement": "Reduction of run-off transcript yield relative to 4 NTPs", "setting": "Bgl II-cut pPK5; 2′-OMe-CTP replacing CTP", "value": 3, "unit": "fold"}, {"measurement": "Reduction in run-off transcript synthesis", "setting": "Bgl II-cut pPK5; 2′-OMe-UTP replacing UTP", "value": "< 15", "unit": "%"}, {"measurement": "Reduction of run-off transcript yield relative to 4 NTPs", "setting": "Bgl II-cut pPK5; both 2′-OMe-UTP and 2′-OMe-CTP", "value": 6, "unit": "fold"}, {"measurement": "Reduction of run-off transcription", "setting": "Bgl II-cut pPK5; both 2′-azido-UTP and 2′-azido-CTP", "value": 3, "unit": "fold"}, {"measurement": "Reduction of run-off transcription", "setting": "Bgl II-cut pPK5; single azido-modified NTP (2′-azido-UTP or 2′-azido-CTP)", "value": 40, "unit": "%"}, {"measurement": "Reduction of run-off transcription", "setting": "HindIII-cut pT75; 2′-OMe-CTP", "value": "~700", "unit": "fold"}, {"measurement": "Reduction of run-off transcript synthesis", "setting": "HindIII-cut pT75; 2′-OMe-UTP", "value": "< 2", "unit": "fold"}, {"measurement": "Reduction of run-off transcription", "setting": "HindIII-cut pT75; 2′-azido-CTP, or both 2′-azido-CTP and 2′-azido-UTP", "value": 7, "unit": "fold"}, {"measurement": "Reduction of run-off transcript yields relative to 4 NTPs", "setting": "HindIII-cut pT75; 2′-azido-UTP", "value": "< 2", "unit": "fold"}, {"measurement": "A650/A260 absorption ratio of transcription products compared to Y639F single mutant", "setting": "T7 Control Template", "value": "significantly higher"}]}
{"molecule": "B1", "values": [{"measurement": "Selectivity for dNTPs over rNTPs", "setting": "[1]", "value": "at least 2,000 fold"}]}
